# Assay results reported in US20060069132A1, “Azolecarboxamide herbicides” (priority 2004, published 2006).
# Where two headings read alike, the source gives them in different places.
# How the values were obtained:
# large crabgrass = test: Test C pre-/postemergence herbicide test; type: in vivo, Digitaria sanguinalis; settings: for Plant response rating, Crabgrass, Large / Plant response rating (0 = no effect, 100 = complete control), Crabgrass, Large: preemergence
# How it was run: (§1)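 Visual injury scores run from 0 (no effect) to 100 (complete control), assessed relative to untreated controls 12 to 14 days after treatment in the greenhouse. Chemicals were formulated in a non-phytotoxic solvent mixture with surfactant and applied to soil after planting or to emerged plants at the 1- to 4-leaf stage.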
# [1] = test system: common (oilseed) sunflower; test: Test C pre-/postemergence herbicide test; type: in vivo, Helianthus annuus; settings: preemergence; for Plant response rating (0 = no effect, 100 = complete control), Sunflower: 125 g ai/ha
# Source text: Seeds of plant species selected from bermudagrass (Cynodon dactylon (L.) Pers.), Surinam grass (Urochloa decumbens (Staph) R. D. Webster, previously named Brachiaria decumbens Stapf), cocklebur (Xanthium strumarium L.), corn (Zea mays L.), large crabgrass (Digitaria sanguinalis (L.) Scop.), woolly cupgrass (Eriochloa villosa (Thunb.) Kunth), giant foxtail (Setaria faberi Herrm.), goosegrass (Eleusine indica (L.) Gaertn.), johnsongrass (Sorghum halepense (L.) Pers.), kochia (Kochia scoparia (L.) Schrad.), lambsquarters (Chenopodium album L.), morningglory (Ipomoea coccinea L.), eastern black nightshade (Solanum ptycanthum Dunal), yellow nutsedge (Cyperus esculentus L.), pigweed (Amaranthus retroflexus L.), common ragweed (Ambrosia elatior L.), soybean (Glycine max (L.) Merr.), common (oilseed) sunflower (Helianthus annuus L.) and velvetleaf (Abutilon theophrasti Medik.) were planted and treated preemergence with test chemicals formulated in a non-phytotoxic solvent mixture which included a surfactant.
# At the same time, plants selected from these crop and weed species and also winter barley (Hordeum vulgare L.), blackgrass (Alopecurus myosuroides Huds.), canarygrass (Phalaris minor Retz.), chickweed (Stellaria media (L.) Vill.), downy bromegrass (Bromus tectorum L.), green foxtail (Setaria viridis (L.) Beauv.), Italian ryegrass (Lolium multiflorum Lam.), wheat (Triticum aestivum L.), wild oat (Avenafatua L.) and windgrass (Apera spica-venti (L.) Beauv.) were treated with postemergence applications of some of the test chemicals formulated in the same manner. Plants ranged in height from 2 to 18 cm (1- to 4-leaf stage) for postemergence treatments. Plant species in the flooded paddy test consisted of rice (Oryza sativa), smallflower umbrella sedge (Cyperus difformis L.), ducksalad (Heteranthera limosa (Sw.) Willd.) and barnyardgrass (Echinochloa crus-galli (L.) Beauv.) grown to the 2-leaf stage for testing. Treated plants and controls were maintained in a greenhouse for 12 to 14 days, after which time all species were compared to controls and visually evaluated. Plant response ratings, summarized in Table C, are based on a scale of 0 to 100 where 0 is no effect and 100 is complete control. A dash (-) response means no test result.
# cocklebur = test: Test C pre-/postemergence herbicide test; type: in vivo, Xanthium strumarium; settings: for Plant response rating, Cocklebur / Plant response rating (0 = no effect, 100 = complete control), Cocklebur: preemergence
# How it was run: as §1
# pigweed = test: Test C pre-/postemergence herbicide test; type: in vivo, Amaranthus retroflexus
# How it was run: as §1
# velvetleaf [2] = test: Test C pre-/postemergence herbicide test; type: in vivo, Abutilon theophrasti; settings: for Plant response rating, Velvetleaf / Plant response rating (0 = no effect, 100 = complete control), Velvetleaf: preemergence
# How it was run: as §1
# velvetleaf [3] = test: Test A pre-/postemergence herbicide test; type: in vivo, Abutilon theophrasti; settings: Abutilon theophrasti, 240 h; for pest or weed control at 2000 g/ha: 2000 g ai/ha
# How it was run: (§2)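 Pre: seeded sandy loam, directed soil spray, compound in non-phytotoxic solvent + surfactant. Post: 1–2-leaf plants (2–10 cm), sprayed to runoff. Greenhouse ~10 d; visual injury vs untreated, 0–100 scale.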
# rice = test: Test B pre-/postemergence herbicide test; type: in vivo, Oryza sativa; settings: Oryza sativa, pre-emergence, 336 h; preemergence, 125 g ai/ha; 0 to 100 scale, 0 is no effect, 100 is complete control; read-out: Plant response rating, Rice
# How it was run: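 Evaluation is visual, comparing treated with control plants on a scale where 0 means no effect and 100 means full control. Treatments were preemergence, or postemergence on seedlings 2–18 cm tall, and held 13–15 days in the greenhouse.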
# giant foxtail = test: Test A pre-/postemergence herbicide test; type: in vivo, Setaria faberi; settings: Setaria faberi, 240 h; for pest or weed control at 500 g/ha: 500 g ai/ha; for pest or weed control at 2000 g/ha: 2000 g ai/ha
# How it was run: as §2
# [4] = 500 g ai/ha, scale 0 to 100 (0 no effect, 100 complete control), visual, 12 to 14 days
# [5] = 62 g ai/ha, preemergence, scale 0 to 100
# [6] = 500 g ai/ha, scale 0 to 100 (0 no effect, 100 complete control), visual, 12 to 14 days, preemergence
# [7] = Postemergence, 500 g ai/ha, scale 0 to 100
# [8] = post-emergence, Postemergence, 0 to 100 scale, 0 no effect, 100 complete control, read-out: Plant response rating, Foxtail, Giant
smiles,measurement,setting,value
CCc1nn(C(C)C)nc1C(=O)Nc1cccc(C(=S)N(C)C)c1 [Compound 409],"Plant response rating, Crabgrass, Large","large crabgrass; 62 g ai/ha, scale 0 to 100",85
same,"Plant response rating (0 = no effect, 100 = complete control), Crabgrass, Large",large crabgrass; 125 g ai/ha,95
same,"Plant response rating, Crabgrass, Large","large crabgrass; 250 g ai/ha, scale 0-100",95
same,"Plant response rating, Crabgrass, Large",large crabgrass; [4],95
same,"Plant response rating, Sunflower","[1]; 62 g ai/ha, scale 0 to 100",0
same,"Plant response rating (0 = no effect, 100 = complete control), Sunflower",[1],5
same,"Plant response rating, Sunflower",[1]; [4],55
same,"Plant response rating, Cocklebur","cocklebur; 62 g ai/ha, scale 0 to 100",0
same,"Plant response rating (0 = no effect, 100 = complete control), Cocklebur",cocklebur; 125 g ai/ha,30
same,"Plant response rating, Cocklebur","cocklebur; 250 g ai/ha, scale 0-100",70
same,"Plant response rating, Cocklebur",cocklebur; [4],80
same,"Plant response rating, Pigweed",pigweed; [5],100
same,"Plant response rating, Pigweed",pigweed; [6],100
same,"Plant response rating, Velvetleaf","velvetleaf [2]; 62 g ai/ha, scale 0 to 100",5
same,"Plant response rating (0 = no effect, 100 = complete control), Velvetleaf",velvetleaf [2]; 125 g ai/ha,30
same,"Plant response rating, Velvetleaf",velvetleaf [2]; [4],100
CCNC(=S)c1cccc(NC(=O)c2nn(C(C)(C)C)nc2C)c1 [Compound 420],"Plant response rating, Crabgrass, Large","large crabgrass; 62 g ai/ha, scale 0 to 100",100
same,"Plant response rating (0 = no effect, 100 = complete control), Crabgrass, Large",large crabgrass; 125 g ai/ha,100
same,"Plant response rating, Crabgrass, Large","large crabgrass; 250 g ai/ha, scale 0-100",100
same,"Plant response rating, Crabgrass, Large",large crabgrass; [4],100
same,"Plant response rating, Sunflower","[1]; 62 g ai/ha, scale 0 to 100",0
same,"Plant response rating (0 = no effect, 100 = complete control), Sunflower",[1],0
same,"Plant response rating, Sunflower",[1]; [4],65
same,"Plant response rating, Cocklebur","cocklebur; 62 g ai/ha, scale 0 to 100",0
same,"Plant response rating (0 = no effect, 100 = complete control), Cocklebur",cocklebur; 125 g ai/ha,0
same,"Plant response rating, Cocklebur","cocklebur; 250 g ai/ha, scale 0-100",15
same,"Plant response rating, Cocklebur",cocklebur; [4],70
same,"Plant response rating, Pigweed",pigweed; [5],100
same,"Plant response rating (0 = no effect, 100 = complete control), Pigweed","pigweed; 125 g ai/ha, preemergence",100
same,"Plant response rating, Pigweed",pigweed; [6],100
same,"Plant response rating, Velvetleaf","velvetleaf [2]; 62 g ai/ha, scale 0 to 100",80
same,"Plant response rating (0 = no effect, 100 = complete control), Velvetleaf",velvetleaf [2]; 125 g ai/ha,100
same,"Plant response rating, Velvetleaf",velvetleaf [2]; [4],100
"CCn1nc(C(C)(C)C)cc1C(=O)Nc1cccc(C(=O)OCCF)c1 [Compound 82, 2-fluoroethyl 3-[[[3-(1,1-dimethylethyl)-1-ethyl-1H-pyrazol-5-yl]-carbonyl]amino]benzoate]",pest or weed control at 250 g/ha,"large crabgrass; Digitaria sanguinalis, post-emergence, 312 h, Postemergence, 250 g ai/ha, scale 0 to 100, 0 no effect, 100 complete control, read-out: Plant response rating, Crabgrass, Large",0%
same,pest or weed control at 125 g/ha,"large crabgrass; Digitaria sanguinalis, post-emergence, 312 h, postemergence, 125 g ai/ha, scale 0 to 100, read-out: Plant response rating, Crabgrass, Large",0%
same,pest or weed control at 62 g/ha,"large crabgrass; Digitaria sanguinalis, post-emergence, 312 h, postemergence, 62 g ai/ha, scale 0 to 100, read-out: Plant response rating, Crabgrass, Large",0%
same,"Crabgrass, Large plant response rating",large crabgrass; [7],60
same,pest or weed control at 2000 g/ha,"velvetleaf [3]; post-emergence, Postemergence, 0 to 100 scale, 0 no effect, 100 complete control, read-out: Plant response rating, Velvetleaf",30%
same,pest or weed control at 500 g/ha,"velvetleaf [3]; pre-emergence, Preemergence, 500 g ai/ha, visual rating, 0 to 100 scale (0 no effect, 100 complete control), read-out: Velvetleaf plant response rating",0%
same,pest or weed control at 2000 g/ha,"velvetleaf [3]; pre-emergence, Preemergence, visual rating, 0 to 100 scale (0 no effect, 100 complete control), read-out: Velvetleaf plant response rating",0%
same,pest or weed control at 500 g/ha,"cocklebur; Xanthium strumarium, post-emergence, 312 h, Postemergence, 500 g ai/ha, scale 0 to 100, read-out: Cocklebur plant response rating",20%
same,pest or weed control at 250 g/ha,"cocklebur; Xanthium strumarium, post-emergence, 312 h, Postemergence, 250 g ai/ha, scale 0 to 100, 0 no effect, 100 complete control, read-out: Plant response rating, Cocklebur",5%
same,pest or weed control at 125 g/ha,"cocklebur; Xanthium strumarium, post-emergence, 312 h, postemergence, 125 g ai/ha, scale 0 to 100, read-out: Plant response rating, Cocklebur",5%
same,pest or weed control at 62 g/ha,"cocklebur; Xanthium strumarium, post-emergence, 312 h, postemergence, 62 g ai/ha, scale 0 to 100, read-out: Plant response rating, Cocklebur",5%
same,plant injury at 125 g/ha,rice,0%
same,pest or weed control at 250 g/ha,"pigweed; Amaranthus retroflexus, post-emergence, Postemergence, 250 g ai/ha, scale 0 to 100, 0 no effect, 100 complete control, read-out: Plant response rating, Pigweed",100%
same,pest or weed control at 125 g/ha,"pigweed; Amaranthus retroflexus, post-emergence, postemergence, 125 g ai/ha, scale 0 to 100, read-out: Plant response rating, Pigweed",100%
same,pest or weed control at 62 g/ha,"pigweed; Amaranthus retroflexus, post-emergence, postemergence, 62 g ai/ha, scale 0 to 100, read-out: Plant response rating, Pigweed",85%
same,Pigweed plant response rating,pigweed; [7],100
same,pest or weed control at 250 g/ha,"velvetleaf [2]; Abutilon theophrasti, post-emergence, Postemergence, 250 g ai/ha, scale 0 to 100, 0 no effect, 100 complete control, read-out: Plant response rating, Velvetleaf",70%
same,pest or weed control at 125 g/ha,"velvetleaf [2]; Abutilon theophrasti, post-emergence, postemergence, 125 g ai/ha, scale 0 to 100, read-out: Plant response rating, Velvetleaf",10%
same,pest or weed control at 62 g/ha,"velvetleaf [2]; Abutilon theophrasti, post-emergence, postemergence, 62 g ai/ha, scale 0 to 100, read-out: Plant response rating, Velvetleaf",5%
same,Velvetleaf plant response rating,velvetleaf [2]; [7],75
same,pest or weed control at 500 g/ha,giant foxtail; [8],20%
same,pest or weed control at 2000 g/ha,giant foxtail; [8],20%
same,pest or weed control at 500 g/ha,"giant foxtail; pre-emergence, Preemergence, visual rating, 0 to 100 scale (0 no effect, 100 complete control), read-out: Foxtail, Giant plant response rating",0%
same,pest or weed control at 2000 g/ha,"giant foxtail; pre-emergence, Preemergence, 0 to 100 scale, 0 no effect, 100 complete control, read-out: Foxtail, Giant plant response rating",0%
